For one experiment, the target named is KCNQ1 (Homo sapiens, UniProt P51787). Description: TEVC of homomeric KCNQ1 expressed in Xenopus oocytes. The experiment is classed as cell-based.
The next experiment has as its target T1, GLRA1 (Homo sapiens, UniProt P23415).
T1 sequence (P23415 29-457): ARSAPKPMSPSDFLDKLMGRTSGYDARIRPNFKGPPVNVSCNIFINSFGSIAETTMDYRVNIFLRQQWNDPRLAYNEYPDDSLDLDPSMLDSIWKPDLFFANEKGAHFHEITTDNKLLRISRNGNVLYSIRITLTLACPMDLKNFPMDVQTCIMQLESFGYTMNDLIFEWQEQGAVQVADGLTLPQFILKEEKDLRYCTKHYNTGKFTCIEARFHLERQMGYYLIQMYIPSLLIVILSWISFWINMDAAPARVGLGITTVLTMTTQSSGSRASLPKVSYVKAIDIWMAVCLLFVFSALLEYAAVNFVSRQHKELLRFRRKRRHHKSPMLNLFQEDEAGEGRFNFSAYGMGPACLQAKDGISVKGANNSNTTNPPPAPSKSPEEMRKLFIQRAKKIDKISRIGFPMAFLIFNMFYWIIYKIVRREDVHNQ
Kind of experiment: TEVC of glycine receptor GLRA1 expressed in oocytes. The experiment is classed as cell-based. Conditions: for activation of GLRA1 by compound alone: 1 mM. From the text:
We generated cRNA transcripts encoding human KCNQ1, KCNQ2, KCNQ3, KCNQ4, KCNQ5 or GLRA1 (NM_001146040) (GenScript, Piscataway, N.J., USA) by in vitro transcription using the T7 polymerase mMessage mMachine kit (Thermo Fisher Scientific), after vector linearization, from cDNA sub-cloned into plasmids incorporating Xenopus laevis β-globin 5′ and 3′ UTRs flanking the coding region to enhance translation and cRNA stability. We quantified cRNA by spectrophotometry. We generated mutant KCNQ2 and KCNQ3 cDNAs by site-directed mutagenesis using a QuikChange kit (Stratagene, San Diego, Calif.) and prepared the corresponding cRNAs as above. We injected defolliculated stage V and VI Xenopus laevis oocytes (Ecocyte Bioscience, Austin, Tex. and Xenoocyte, Dexter, Mich.) with KCNQ channel a subunit (5-20 ng) or GLRA1 (20 ng) cRNAs. We incubated the oocytes at 16° C. in Barth's saline solution (Ecocyte) containing penicillin and streptomycin, with daily washing, for 2-5 days prior to two-electrode voltage-clamp (TEVC) recording.
We performed TEVC at room temperature using an OC-725C amplifier (Warner Instruments, Hamden, Conn.) and pClamp10 software (Molecular Devices, Sunnyvale, Calif.) 3-5 days after cRNA injection as described in the section above. For recording, oocytes were placed in a small-volume oocyte bath (Warner) and viewed them with a dissection microscope. Chemicals were sourced from Sigma, Matrix Scientific and Santa Cruz. […] All stock solutions were diluted in bath solution on the day of experiments. KCNQ2/3 channel activation was screened for using either 30 μM or 100 μM concentrations of each of the six compounds, then dose responses were conducted as appropriate. Bath solution was (in mM): 96 NaCl, 4 KCl, 1 MgCl2, 1 CaCl2, 10 HEPES (pH 7.6). Compounds were introduced into the oocyte recording bath by gravity perfusion at a constant flow of 1 ml per minute for 3 minutes prior to recording. Pipettes were of 1-2 MΩ resistance when filled with 3 M KCl. Currents were recorded in response to voltage pulses between −120 or −80 mV and +40 mV at 20 mV intervals from a holding potential of −80 mV, to yield current-voltage relationships, current magnitude, and for quantifying activation rate. We analyzed data using Clampfit (Molecular Devices) and Graphpad Prism software (GraphPad, San Diego, Calif., USA); values are stated as mean±SEM. We plotted raw or normalized tail currents versus prepulse voltage and fitted with a single Boltzmann function: […]

From the text for KCNQ1: cRNA transcripts encoding human KCNA1, KCNQ1, KCNQ2, KCNQ3, KCNQ4, or KCNQ5 were generated by in vitro transcription using the T7 polymerase message machine kit (Thermo Fisher Scientific), after vector linearization, from cDNA sub-cloned into plasmids incorporating X. laevis β-globin 5′ and 3′ UTRs flanking the coding region to enhance translation and cRNA stability. cRNA was quantified by spectrophotometry. Mutant cDNAs were generated by site-directed mutagenesis using a QuikChange kit according to manufacturer's protocol (Stratagene, San Diego, Calif.) and corresponding cRNAs prepared as above. Defolliculated stage V and VI X. laevis oocytes (Ecocyte Bioscience, Austin, Tex.) were injected with Kv channel a subunit cRNAs (10 ng total per oocyte). Oocytes were incubated at 16° C. in Barth's saline solution (Ecocyte) containing penicillin and streptomycin, with daily washing, for 3-5 days prior to two-electrode voltage-clamp (TEVC) recording.
Oocytes were placed in a small-volume oocyte bath (Warner) and viewed with a dissection microscope. Chemicals were sourced from Sigma. Bath solution was (in mM): 96 NaCl, 4 KCl, 1 MgCl2, 1 CaCl2. 10 HEPES (pH 7.6). […] MTX (DMSO), sorbic acid (ethanol), and glutaconic acid (molecular grade H2O) were stored at −20° C. as 1 M stocks. Oleamide was stored as a 1 mM stock in ethanol at 4° C. Palmitic acid was conjugated with bovine serum albumin as a 1 mM stock and stored at −20° C. All compounds were diluted to working concentrations each experimental day. All compounds were introduced to the recording bath via gravity perfusion at a constant flow of 1 ml/min for 3 min prior to recording. Pipettes were of 1-2 MΩ resistance when filled with 3 M KCl. Currents were recorded in response to pulses between −80 and +40 mV at 20 mV intervals, or a single pulse to +40 mV, from a holding potential of −80 mV, to yield current-voltage relationships, current magnitude, and for quantifying activation rate. […]

For the compound `CS(=O)(=O)N(CC(=O)O)c1cccc(F)c1` [3FMSG], the “effect on KCNQ1 (in words)” value on KCNQ1 was “negligible effects”. At GLRA1 (100 μM, 1 mM glycine), the “inhibition of glycine-activated GLRA1” value was ~40% and the “inhibition of glycine-activated GLRA1 (in words)” value is “partially inhibited”. The “activation of GLRA1 by compound alone” value on GLRA1 is on record as “lack of effects”.

`CCCCCCCCC/C=C/C=O` [(E)-2-dodecenal]: the “effect on KCNQ1 (in words)” value on KCNQ1 was “sensitive”.

With `NCC(=O)O` [glycine, reference compound], the “activation of GLRA1 by compound alone” value on GLRA1 was “robust activation”.

These data come from patent US12268683B2, “Compounds and methods for synergistic activation of M channels” (THE REGENTS OF THE UNIVERSITY OF CALIFORNIA, priority 2018, dated 2025).
